{
  "source": "patent US20230338572A1",
  "about": "“ANTI-TM4SF1 ANTIBODY-DRUG CONJUGATES COMPRISING CLEAVABLE LINKERS AND METHODS OF USING SAME” (Angiex, Inc., priority 2020, published 2023)",
  "key": {"HUVEC": {"test_system": "HUVEC", "experiment": "In vitro cell proliferation inhibition assay (Example 10)", "assay_type": "cell-based, human", "conditions": "free drug/linker payload, 5 days", "experimental": "(§1) The effects of antibody drug-conjugates (drug to antibody ratio (DAR) varying from 0.9 to 3.5) containing a drug (maytansine or camptothecin) assessed in cultured mouse (MS1) and human (HUVEC, and MiaPaCa2) cells. The structures of the ADC tested are listed in Table 8 and shown in FIG. 19 (ADC) and FIG. 26 (ADC2, ADC3, and ADC4). Both Exemplary Antibody 1 and Exemplary Antibody 2 contain human IgG1 constant region with YTEC mutation. Cells were incubated for 5 days with the antibody drug conjugate before assessing cell viability on day 5.\n(§2) In this experiment, different payloads were respectively assessed in cultured mouse (MS1) and human (MiaPaCa2 and HUVEC) cells. Cells were treated incubated for 5 days with the antibody drug conjugate before assessing cell viability on day 5."}, "MS1": {"test_system": "MS1", "experiment": "In vitro cell proliferation inhibition assay (Example 10)", "assay_type": "cell-based, mouse", "conditions": "free drug/linker payload, 5 days", "experimental": "as §1, §2"}, "[1]": {"conditions": "cited from earlier work"}, "MiaPaCa2": {"test_system": "MiaPaCa2", "experiment": "In vitro cell proliferation inhibition assay (Example 10)", "assay_type": "cell-based, human", "conditions": "free drug/linker payload; 5 days", "experimental": "as §1, §2"}, "[2]": {"target": "T1, human TM4SF1 (transmembrane-4 L six family member-1), on HUVEC cells (UniProt P30408 1-202)", "T1 chain": "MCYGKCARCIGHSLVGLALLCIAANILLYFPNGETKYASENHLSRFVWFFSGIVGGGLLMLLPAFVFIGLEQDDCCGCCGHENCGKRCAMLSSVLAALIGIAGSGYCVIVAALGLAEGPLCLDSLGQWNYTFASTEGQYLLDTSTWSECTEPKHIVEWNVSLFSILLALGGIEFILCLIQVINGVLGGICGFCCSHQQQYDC", "experiment": "flow cytometry, HUVEC"}},
  "data": [
    {"molecule": "CC[C@@]1(O)C(=O)OCc2c1cc1n(c2=O)Cc2cc3ccccc3nc2-1", "note": "[payload 3, Camptothecin]", "values": [
      {"measurement": "EC50", "setting": "HUVEC; Homo sapiens, HUVEC, 120 h", "value": 1.89, "unit": "nM"},
      {"measurement": "EC50", "setting": "MS1; Mus musculus, MS-1, 120 h", "value": 34.3, "unit": "nM"}
    ]},
    {"molecule": "Combretastatin [CA4P]", "values": [
      {"measurement": "Overall survival", "setting": "[1]; Phase II FALCON study, reduced from 16.2", "value": 13.6, "unit": "months"},
      {"measurement": "Patients who experienced heart attacks while being treated", "setting": "[1]; human, in vivo", "value": "seven"}
    ]},
    {"molecule": "Maleimide-ethylamino-nosyl-Ahx-Maytansine [payload 1]", "values": [
      {"measurement": "EC50", "setting": "HUVEC", "value": 0.114, "unit": "nM"},
      {"measurement": "EC50", "setting": "MiaPaCa2", "value": 0.0395, "unit": "nM"}
    ]},
    {"molecule": "Maleimide-tetrazine-PEG3-methyl-EDA-nosyl-Camptothecin [payload 2]", "values": [
      {"measurement": "EC50", "setting": "HUVEC", "value": 1450, "unit": "nM"},
      {"measurement": "EC50", "setting": "MS1", "value": 6710, "unit": "nM"}
    ]},
    {"molecule": "AGX-A07 \"YTEC\" variant (anti-TM4SF1 antibody AGX-A07 with Fc mutations N297C, M252Y, S254T and T256E), naked antibody (antibody, V domains shown) VH: QIQLVQSGPELKKPGETVKISCKASGYTFTNYGVKWVKQAPGKDLKWMGWINTYTGNPIYAADFKGRFAFSLETSASTAFLQINNLKNEDTATYFCVRFQYGDYRYFDVWGAGTTVTVSS VL: QIILSQSPAILSASPGEKVTMTCRANSGISFINWYQQKPGSSPKPWIYGTANLASGVPARFGGSGSGTSYSLTISRVEAEDAATYYCQQWSSNPLTFGAGTKLELR", "values": [
      {"measurement": "EC50", "setting": "[2]", "value": 1.75, "unit": "nM"}
    ]}
  ]
}
